ChEMBL document CHEMBL5500345, “Discovery of a novel homoisoflavonoid derivative 5g for anti-osteoclastic bone loss via targeting FGFR1” (Eur J Med Chem, 2024)
Calls of active or inactive are those of the source. The calls are words filed in the database; no cut-off is given here.

What was measured:
BMDM [1] = assay: Anti-osteoclastogenic activity in C57/BL6 mouse BMDM cells assessed as inhibition of RANKL-induced osteoclast differentiation at 5 uM incubated for 4 days in presence of M-CSF by TRAP staining based microscopic analysis relative to control; assay type: functional; conditions: 96 h, time 4 day
BMDM [2] = assay: Anti-osteoclastogenic activity in C57/BL6 mouse BMDM cells assessed as inhibition of RANKL-induced osteoclast differentiation at 10 uM incubated for 4 days in presence of M-CSF by TRAP staining based microscopic analysis relative to control; assay type: functional; conditions: 96 h, time 4 day
BMDM [3] = assay: Anti-osteoclastogenic activity in M-CSF/RANKL-induced C57/BL6 mouse BMDM cells assessed as downregulation of FGFR1 expression at 10 uM incubated upto 3 days by immunoblotting analysis; assay type: functional, cell-based; conditions: time <= 3.0 day
BMDM [4] = assay: Anti-osteoclastogenic activity in C57/BL6 mouse BMDM cells assessed as inhibition of RANKL-induced osteoclast formation at 10 uM incubated for 4 days in presence of M-CSF by TRAP staining based microscopic analysis; assay type: functional, cell-based; conditions: time 4.0 day
BMDM [5] = assay: Anti-osteoclastogenic activity in M-CSF/RANKL-induced C57/BL6 mouse BMDM cells assessed as downregulation of NF-kappaB expression at 10 uM incubated upto 3 days by immunoblotting analysis; assay type: functional, cell-based; conditions: time <= 3.0 day
BMDM [6] = assay: Anti-osteoclastogenic activity in M-CSF/RANKL-induced C57/BL6 mouse BMDM cells assessed as downregulation of ERK1 expression at 10 uM incubated upto 3 days by immunoblotting analysis; assay type: functional, cell-based; conditions: time <= 3.0 day
Pre-Osteoblast [7] = assay: Induction of osteogenesis in mouse Pre-Osteoblast cells assessed as effect on ALP mRNA expression by qRT-PCR analysis; assay type: functional, cell-based
BMDM [8] = assay: Anti-osteoclastogenic activity in M-CSF/RANKL-induced C57/BL6 mouse BMDM cells assessed as downregulation of c-FOS mRNA expression at 10 uM incubated upto 3 days by qRT-PCR analysis; assay type: functional, cell-based; conditions: time <= 3.0 day
Mus musculus [9] = assay: Anti-osteoporosis activity in OVX-induced osteoporosis C57BL/6 mouse model assessed as prevention of bone loss in femur at 15 mg/kg,po administrated twice daily for 4 weeks by micro-CT scanning analysis; assay type: functional, organism-based
BMDM [10] = assay: Anti-osteoclastogenic activity in M-CSF/RANKL-induced C57/BL6 mouse BMDM cells assessed as downregulation of MMP9 mRNA expression at 10 uM incubated upto 3 days by qRT-PCR analysis; assay type: functional, cell-based; conditions: time <= 3.0 day
BMDM [11] = assay: Anti-osteoclastogenic activity in M-CSF/RANKL-induced C57/BL6 mouse BMDM cells assessed as downregulation of Dc-stamp mRNA expression at 10 uM incubated upto 3 days by qRT-PCR analysis; assay type: functional, cell-based; conditions: time <= 3.0 day
Mus musculus [12] = assay: Anti-osteoporosis activity in OVX-induced osteoporosis C57BL/6 mouse model assessed as increase in bone mineral density in femur at 15 mg/kg,po administrated twice daily for 4 weeks by micro-CT scanning analysis; assay type: functional, organism-based
BMDM [13] = assay: Anti-osteoclastogenic activity in C57/BL6 mouse BMDM cells assessed as inhibition of RANKL-induced F-actin belt formation incubated for 6 days by F-actin ring assay; assay type: functional, cell-based; conditions: time 6.0 day
BMDM [14] = assay: Anti-osteoclastogenic activity in C57/BL6 mouse BMDM cells assessed as inhibition of RANKL-induced bone resorption pit incubated for 6 days by fluorescein amine-labeled calcium phosphate based fluorescence spectramax analysis; assay type: functional, cell-based; conditions: time 6.0 day
BMDM [15] = assay: Anti-osteoclastogenic activity in M-CSF/RANKL-induced C57/BL6 mouse BMDM cells assessed as downregulation of NFATc1 mRNA expression at 10 uM incubated upto 3 days by qRT-PCR analysis; assay type: functional, cell-based; conditions: time <= 3.0 day
BMDM [16] = assay: Anti-osteoclastogenic activity in M-CSF/RANKL-induced C57/BL6 mouse BMDM cells assessed as downregulation of CTSK mRNA expression at 10 uM incubated upto 3 days by qRT-PCR analysis; assay type: functional, cell-based; conditions: time <= 3.0 day
Mus musculus [17] = assay: Anti-osteoporosis activity in OVX-induced osteoporosis C57BL/6 mouse model assessed as increase in bone volume in femur at 15 mg/kg,po administrated twice daily for 4 weeks by micro-CT scanning analysis; assay type: functional, organism-based
BMDM [18] = assay: Anti-osteoclastogenic activity in M-CSF/RANKL-induced C57/BL6 mouse BMDM cells assessed as downregulation of ACP5 mRNA expression at 10 uM incubated upto 3 days by qRT-PCR analysis; assay type: functional, cell-based; conditions: time <= 3.0 day
Pre-Osteoblast [19] = assay: Induction of osteogenesis in mouse Pre-Osteoblast cells assessed as effect on RUNX2 mRNA expression by qRT-PCR analysis; assay type: functional, cell-based
BMDM [20] = assay: Anti-osteoclastogenic activity in M-CSF/RANKL-induced C57/BL6 mouse BMDM cells assessed as downregulation of CTSK protein expression at 10 uM incubated upto 3 days by Western blotting analysis; assay type: functional, cell-based; conditions: time <= 3.0 day
BMDM [21] = assay: Anti-osteoclastogenic activity in M-CSF/RANKL-induced C57/BL6 mouse BMDM cells assessed as downregulation of ERK2 expression at 10 uM incubated upto 3 days by immunoblotting analysis; assay type: functional, cell-based; conditions: time <= 3.0 day
BMDM [22] = assay: Anti-osteoclastogenic activity in C57/BL6 mouse BMDM cells assessed as inhibition of RANKL-induced bone resorption number incubated for 6 days by fluorescein amine-labeled calcium phosphate based fluorescence spectramax analysis; assay type: functional, cell-based; conditions: time 6.0 day
BMDM [23] = assay: Cytotoxicity against C57/BL6 mouse BMDM cells at < 20 uM incubated for 48 hrs by EZ-Cytox cell viability assay; assay type: toxicity, cell-based
BMDM [24] = assay: Anti-osteoclastogenic activity in C57/BL6 mouse BMDM cells assessed as inhibition of RANKL-induced osteoclast differentiation by measuring number of TRAP-positive cells incubated for 4 days in presence of M-CSF by TRAP staining based microscopic analysis; assay type: functional, cell-based; conditions: 96 h
Pre-Osteoblast [25] = assay: Induction of osteogenesis in mouse Pre-Osteoblast cells assessed as effect on OSX mRNA expression by qRT-PCR analysis; assay type: functional, cell-based
[26] = Toxicity in OVX-induced osteoporosis C57BL/6 mouse model assessed as change in body weight at 30 mg/kg,po administrated twice daily for 4 weeks; assay type: organism-based; conditions: in vivo, 672 h
Mus musculus [27] = assay: Anti-osteoporosis activity in OVX-induced osteoporosis C57BL/6 mouse model assessed as increase in bone volume in femur at 30 mg/kg,po administrated twice daily for 4 weeks by micro-CT scanning analysis; assay type: functional, organism-based
Mus musculus [28] = assay: Anti-osteoporosis activity in OVX-induced osteoporosis C57BL/6 mouse model assessed as prevention of bone loss in femur at 30 mg/kg,po administrated twice daily for 4 weeks by micro-CT scanning analysis; assay type: functional, organism-based
BMDM [29] = assay: Anti-osteoclastogenic activity in M-CSF/RANKL-induced C57/BL6 mouse BMDM cells assessed as downregulation of ATP6V0D2 mRNA expression at 10 uM incubated upto 3 days by qRT-PCR analysis; assay type: functional, cell-based; conditions: time <= 3.0 day
BMDM [30] = assay: Anti-osteoclastogenic activity in M-CSF/RANKL-induced C57/BL6 mouse BMDM cells assessed as downregulation of IkappaBalpha expression at 10 uM incubated upto 3 days by immunoblotting analysis; assay type: functional, cell-based; conditions: time <= 3.0 day
Mus musculus [31] = assay: Anti-osteoporosis activity in OVX-induced osteoporosis C57BL/6 mouse model assessed as increase in bone mineral density in femur at 30 mg/kg,po administrated twice daily for 4 weeks by micro-CT scanning analysis; assay type: functional, organism-based
Pre-Osteoblast [32] = assay: Induction of osteogenesis in mouse Pre-Osteoblast cells assessed as increase in ALP expression at < 20 uM incubated for 9 days by BCIP/NBT staining based analysis; assay type: functional, cell-based; conditions: time 9.0 day
[33] = Cytotoxicity against BMP2-induced mouse Pre-Osteoblast cells at < 20 uM incubated for 48 hrs by EZ-Cytox cell viability assay; assay type: toxicity, cell-based

O=c1c(Cc2ccccc2Oc2ccc(O)cc2)c(-c2ccccc2)oc2ccccc12
inhibition at 5 µM (BMDM [1]): 29.4%
inhibition at 10 µM (BMDM [2]): 55.3%

CC(C)(C)c1ccc(Oc2ccccc2Cc2c(-c3ccccc3)oc3ccccc3c2=O)cc1
inhibition at 5 µM (BMDM [1]): 11.1%
inhibition at 10 µM (BMDM [2]): 12%

O=c1c(Cc2cc(-c3ccccc3)ccc2O)c(-c2ccccc2)oc2ccccc12
inhibition at 5 µM (BMDM [1]): 25.6%
inhibition at 10 µM (BMDM [2]): 23.7%

Cc1ccc(S(=O)(=O)Oc2ccccc2Cc2c(-c3ccccc3)oc3ccccc3c2=O)cc1
inhibition at 5 µM (BMDM [1]): 28.9%
inhibition at 10 µM (BMDM [2]): 68.1%

O=c1c(Cc2ccccc2O)c(-c2ccc(Cl)cc2)oc2ccccc12
inhibition at 5 µM (BMDM [1]): 33%
inhibition at 10 µM (BMDM [2]): 36.7%

O=c1c(Cc2cc(Cl)cc(Cl)c2O)c(-c2ccccc2)oc2ccccc12
inhibition at 5 µM (BMDM [1]): 2.94%
inhibition at 10 µM (BMDM [2]): 14.7%

O=c1c(Cc2cc(Br)ccc2O)c(-c2ccccc2)oc2ccc(Br)cc12
inhibition at 5 µM (BMDM [1]): -8.26%
inhibition at 10 µM (BMDM [2]): -4.4%

O=c1c(Cc2cc(F)ccc2O)c(-c2ccccc2)oc2ccc(F)cc12
inhibition at 5 µM (BMDM [1]): 40%
inhibition at 10 µM (BMDM [2]): 37.6%

Cc1ccc(-c2oc3ccc(C)cc3c(=O)c2Cc2cc(C)ccc2O)cc1
inhibition at 5 µM (BMDM [1]): 22.3%
inhibition at 10 µM (BMDM [2]): 23.8%

COc1ccc(-c2oc3ccccc3c(=O)c2Cc2ccccc2O)cc1
Activity (BMDM [3]): Active
Activity (BMDM [4]): Active
Activity (BMDM [5]): Active
Activity (BMDM [6]): Active
Activity (Pre-Osteoblast [7]): inactive
Activity (BMDM [8]): Active
Activity (Mus musculus [9]): Active
Activity (BMDM [10]): Active
Activity (BMDM [11]): Active
Activity (Mus musculus [12]): Active
Activity (BMDM [13]): Dose-Dependent Effect
Activity (BMDM [14]): Dose-Dependent Effect
Activity (BMDM [15]): Active
Activity (BMDM [16]): Active
Activity (Mus musculus [17]): Active
Activity (BMDM [18]): Active
Activity (Pre-Osteoblast [19]): inactive
inhibition at 5 µM (BMDM [1]): 56.4%
Activity (BMDM [20]): Active
Activity (BMDM [21]): Active
Activity (BMDM [22]): Dose-Dependent Effect
Activity (BMDM [23]): Non-Toxic
IC50 (BMDM [24]): 2390 nM
Activity (Pre-Osteoblast [25]): inactive
Activity [26]: Non-Toxic
Activity (Mus musculus [27]): Active
Activity (Mus musculus [28]): Active
Activity (BMDM [29]): Active
Activity (BMDM [30]): Active
inhibition at 10 µM (BMDM [2]): 79%
Activity (Mus musculus [31]): Active
Activity (Pre-Osteoblast [32]): inactive
Activity [33]: Non-Toxic

O=c1c(Cc2ccccc2O)c(-c2ccccc2)oc2ccccc12
inhibition at 5 µM (BMDM [1]): 31.5%
inhibition at 10 µM (BMDM [2]): 60.4%

COc1ccc(O)c(Cc2c(-c3ccccc3)oc3ccccc3c2=O)c1
inhibition at 5 µM (BMDM [1]): 36.5%
inhibition at 10 µM (BMDM [2]): 38.2%

CS(=O)(=O)c1ccc(Oc2ccccc2Cc2c(-c3ccccc3)oc3ccccc3c2=O)cc1
inhibition at 5 µM (BMDM [1]): 23.2%
inhibition at 10 µM (BMDM [2]): 51.8%
